Experiments:
[1] = target: 5-hydroxytryptamine receptor 5A (Rattus norvegicus, UniProt P35364)
[2] = target: T1, 5-hydroxytryptamine receptor 2C (Rattus norvegicus, UniProt P08909)
T1 sequence (P08909 whole entry): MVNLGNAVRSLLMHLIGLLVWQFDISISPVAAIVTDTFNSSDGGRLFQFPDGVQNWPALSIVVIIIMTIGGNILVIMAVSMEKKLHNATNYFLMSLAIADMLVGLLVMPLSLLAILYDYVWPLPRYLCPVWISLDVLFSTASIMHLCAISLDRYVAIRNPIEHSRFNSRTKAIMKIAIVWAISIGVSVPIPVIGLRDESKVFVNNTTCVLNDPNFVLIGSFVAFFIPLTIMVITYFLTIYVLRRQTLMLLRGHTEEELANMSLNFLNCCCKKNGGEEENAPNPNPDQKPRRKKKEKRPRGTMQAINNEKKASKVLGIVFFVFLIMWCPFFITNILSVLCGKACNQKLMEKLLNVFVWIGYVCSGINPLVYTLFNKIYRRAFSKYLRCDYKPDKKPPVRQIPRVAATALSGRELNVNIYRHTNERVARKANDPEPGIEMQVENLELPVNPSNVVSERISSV

Sequence of 5-hydroxytryptamine receptor 5A (P35364 whole entry): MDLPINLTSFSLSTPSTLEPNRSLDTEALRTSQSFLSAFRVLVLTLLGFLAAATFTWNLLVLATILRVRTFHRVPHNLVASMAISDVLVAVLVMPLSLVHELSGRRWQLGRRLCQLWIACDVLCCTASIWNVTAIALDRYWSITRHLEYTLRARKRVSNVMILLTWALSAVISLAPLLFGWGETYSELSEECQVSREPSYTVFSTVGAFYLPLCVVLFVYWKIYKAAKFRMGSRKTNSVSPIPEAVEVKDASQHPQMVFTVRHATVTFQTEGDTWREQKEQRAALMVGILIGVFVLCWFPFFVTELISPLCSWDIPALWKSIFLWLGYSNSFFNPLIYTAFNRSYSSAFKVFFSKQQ

For NCC(O)c1ccc(O)c(O)c1 (stereo not drawn) [Noradrenaline,(+)], the Ki [1] was > 10 µM and the Ki [2] was > 10 µM.

Source: BindingDB's records for PubMed 9686407 (Sri International, 1998)
